In patent publication US5750724A, “Indolealkyl derivatives of benzodioxanmethylamine” (American Home Products Corporation, priority 1996, dated 1998):

Legend:
[1] = target: T1, 5-HT1A serotonin receptor (Rattus norvegicus, UniProt P19327); experiment: displacement of [3H] 8-OHDPAT (dipropylaminotetralin) from the 5-HT1A serotonin receptor (Hall et al.); format: binding; details: read-out: 5-HT1A Receptor Affinity IC50
T1 construct: following the procedure of Hall et al., J. Neurochem; 44, 1685 (1985); from tissue
T1 sequence (P19327 1-422): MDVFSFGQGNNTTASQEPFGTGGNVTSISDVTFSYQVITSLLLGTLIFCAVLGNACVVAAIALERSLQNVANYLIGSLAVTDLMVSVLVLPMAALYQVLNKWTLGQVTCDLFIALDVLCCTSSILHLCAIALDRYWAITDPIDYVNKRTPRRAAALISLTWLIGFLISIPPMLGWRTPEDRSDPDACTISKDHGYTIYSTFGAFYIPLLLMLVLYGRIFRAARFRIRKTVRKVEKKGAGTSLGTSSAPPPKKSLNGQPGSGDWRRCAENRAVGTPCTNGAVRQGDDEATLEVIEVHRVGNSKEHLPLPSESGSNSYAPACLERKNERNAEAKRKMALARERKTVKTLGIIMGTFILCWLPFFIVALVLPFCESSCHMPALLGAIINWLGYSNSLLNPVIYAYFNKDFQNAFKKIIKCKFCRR
Excerpt: High affinity for the serotonin 5-HT1A receptor was established by testing the claimed compound's ability to displace [^3 H] 8-OHDPAT (dipropylaminotetralin) from the ^5 -HT1A serotonin receptor following the procedure of Hall et al., J. Neurochem. 44, 1685 (1985). […] The anxiolytic and antidepressant activity of these agents are believed to be, at least partially, due to their 5-HT1A receptor affinity (Vander Maclen et al., Eur. J. Pharmacol. 1986, 129 (1-2) […] and Lucki, J. Clin. Psychiat. 1992, 52, 24-31).

dopamine D2 receptor = target: T2, dopamine D2 receptor (Rattus norvegicus, UniProt P61169); experiment: dopamine D2 receptor affinity, 3H-quinpirole, homogenized rat striatal brain tissue (modified Seemen and Schaus); format: binding
T2 construct: homogenized rat striatal brain tissue; from tissue; host or cells: rat striatum homogenate
Experimental: Affinity for the dopamine D2 receptor was established by a modification of the standard experimental test procedure of Seemen and Schaus, European Journal of Pharmacology 203: 105-109, 1991, wherein homogenized rat striatal brain tissue is incubated with ^3 H-quinpirole and various concentrations of test compound, filtered and washed and counted in a Betaplate scintillation counter.

[2] = tested on: 3H 5-hydroxytryptamine uptake; experiment: inhibition of 3H 5-hydroxytryptamine uptake, crude synaptosomes from rat frontal cortex (modified Wood and Willie); format: biochemical; details: nonspecific uptake in presence of 10 μM fluoxetine, read-out: Inhibition 5-HT Uptake IC50
Experimental: Inhibition of ^3 H 5-hydroxytryptamine uptake was established using a modification of the procedure of Wood and Willie, J. Neurochem. 37:795, 1981. Crude synaptosomes prepared from rat frontal cortex were utilized and nonspecific uptake was defined as that occurring in the presence of excess (10 μM) fluoxetine.

5-HT1A receptors = details: European Journal of Pharmacology, 173 (1989), 189; cited from earlier work
[3] = target: T1, 5-HT1A serotonin receptor; details: reference agents; cited from earlier work
[4] = cited from earlier work

T2 sequence (P61169 whole entry): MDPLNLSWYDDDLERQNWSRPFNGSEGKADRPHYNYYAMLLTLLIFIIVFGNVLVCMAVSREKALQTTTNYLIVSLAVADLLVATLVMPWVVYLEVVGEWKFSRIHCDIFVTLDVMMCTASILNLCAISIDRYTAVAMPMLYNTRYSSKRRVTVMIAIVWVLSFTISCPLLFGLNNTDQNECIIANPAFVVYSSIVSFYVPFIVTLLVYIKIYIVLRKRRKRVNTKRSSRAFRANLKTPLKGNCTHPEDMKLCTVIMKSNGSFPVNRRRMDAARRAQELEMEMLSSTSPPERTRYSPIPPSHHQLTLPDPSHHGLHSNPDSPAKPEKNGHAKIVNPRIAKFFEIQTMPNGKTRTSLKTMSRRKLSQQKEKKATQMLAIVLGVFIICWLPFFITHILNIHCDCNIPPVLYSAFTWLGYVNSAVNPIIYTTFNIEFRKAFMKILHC

Structure (SMILES)	IC50 [1] [nM]	IC50 (dopamine D2 receptor) [nM]	other results
c1ccc(COc2ccc3[nH]cc(CCCNCC4COc5ccccc5O4)c3c2)cc1 (centres unmarked) [Example 4, [3-(5-Benzyloxy-1H-indol-3-yl)-propyl]-(2,3-dihydro-benzo[1,4]dioxin-2-ylmethyl)-amine]	8.05	102	
Fc1ccc2[nH]cc(CCCNCC3COc4ccccc4O3)c2c1 (centres unmarked) [Example 13, (2,3-Dihydro-benzo[1,4]dioxin-2-ylmethyl)-[3-(5-fluoro-1H-indol-3-yl)-propyl]-amine]	0.12	8.13	IC50 [2]: 154 nM
COc1ccc2c(c1)OC(CNCCCc1c[nH]c3ccc(O)cc13)CO2 (centres unmarked) [Example 6, 3-{3-[(7-Methoxy-2,3-dihydro-benzo[1,4]dioxin-2-ylmethyl)-amino]-propyl}-1H-indol-5-ol]	2.7	45	
COc1ccc2[nH]cc(CCNCC3COc4ccccc4O3)c2c1 (centres unmarked)			partial agonist activity at 5-HT1A receptors (in words) (5-HT1A receptors): partial agonist activity at 5-HT1A receptors
Oc1ccc2c(c1)OC(CNCCCCc1c[nH]c3ccccc13)CO2 (centres unmarked) [Example 3, 3-{[4-(1H-Indol-3-yl)-butylamino}-methyl}-2,3-dihydro-benzo[1,4]dioxin-6-ol]	6	1.3	
CC1(C)CC(=O)N(CCCCN2CCN(c3ncccn3)CC2)C(=O)C1 [gepirone]			affinity for the 5-HT1A serotonin receptor subtype (in words) [3]: potent affinity; anxiolytic and antidepressant activity in clinical trials (in words) [4]: demonstrated both anxiolytic and antidepressant activity in clinical trials
CN(C)C/C=C(/c1ccc(Br)cc1)c1cccnc1 [zimelidine, reference compound]			IC50 [2]: 240 nM
CNCCC(Oc1ccc(C(F)(F)F)cc1)c1ccccc1 (centres unmarked) [fluoxetine, reference compound]			IC50 [2]: 71 nM
CN(C)CCCN1c2ccccc2CCc2ccccc21 [imipramine, reference compound]			IC50 [2]: 120 nM
O=C1c2ccccc2S(=O)(=O)N1CCCCN1CCN(c2ncccn2)CC1 [ipsapirone]			affinity for the 5-HT1A serotonin receptor subtype (in words) [3]: potent affinity; anxiolytic and antidepressant activity in clinical trials (in words) [4]: demonstrated both anxiolytic and antidepressant activity in clinical trials
COc1ccc2[nH]cc(CCCNCC3COc4ccccc4O3)c2c1 (centres unmarked) [Example 12, (2.3-Dihydro-benzo[1,4]dioxin-2-ylmethyl)-[3-(5-methoxy-1H-indol-3-yl)-propyl]-amine]	0.1	1.55	IC50 [2]: 2380 nM
COc1ccc2c(c1)O[C@@H](CNCCCCc1c[nH]c3ccccc13)CO2 [Example 2, [4-(1H-Indol-3-yl)-butyl]-(7-methoxy-2,3-dihydro-benzo[1,4]dioxin-2-ylmethyl)amine]	5.7	82	
Oc1ccc2[nH]cc(CCCNCC3COc4ccccc4O3)c2c1 (centres unmarked) [Example 5, 3-{3-[(2,3-Dihydro-benzo[1,4]dioxin-2-ylmethyl)-amino]-propyl}-1H-indol-5-o]	0.06	6.5	IC50 [2]: 52 nM
COc1ccc2c(c1)OC(CNCCCCc1c[nH]c3ccc(OC)cc13)CO2 (centres unmarked) [Example 9, (7-Methoxy-2,3-dihydro-benzo[1,4]dioxin-2-ylmethyl)-[4-(5-methoxy-1 H-indol-3-yl)-butyl]-amine]	0.8	64	IC50 [2]: 738 nM
c1ccc2c(CCCCNC[C@H]3COc4cc5c(cc4O3)OCO5)c[nH]c2c1 [Example 1, [(6,7-Dihydro-1,3-dioxolo[4,5-g][1,4]benzodioxin-6-yl)methyl]-[4-(1H-indol-3-yl)-butyl]-amine]	5.6	116	
COc1ccc2c(c1)OC(CN(C)CCCc1c[nH]c3ccc(OC)cc13)CO2 (centres unmarked) [Example 7, (7-Methoxy-2,3-dihydro-benzo[1,4]dioxin-2-ylmethyl)-[3-(5-methoxy-1H-indol-3-yl)-propyl]-methyl-amine]	6.74	1230	
CS(=O)(=O)Nc1ccc2c(c1)OC(CNCCCCc1c[nH]c3ccccc13)CO2 (centres unmarked) [Example 11, N-(3-{[4-(1 H-Indol-3-yl)-butylamino]-methyl}-2,3-dihydro-benzo[1,4]dioxin-6-yl)-methanesulfonamide]	3.89	2.37	IC50 [2]: 13.5 nM
Oc1ccc2c(c1)OC(CNCCCc1c[nH]c3ccc(O)cc13)CO2 (centres unmarked) [Example 8, 3-{3-[(7-Hydroxy-2,3-dihydro-benzo[1,4]dioxin-2-ylmethyl)-amino]-propyl}-1H-indol-5-ol]	0.35	0.61	
COc1ccc2[nH]cc(CCCCNCC3COc4ccc(O)cc4O3)c2c1 (centres unmarked) [Example 10, 3-{[4-(5-Methoxy-1H-indol-3-yl)-butylamino]methyl}-2,3-dihydrobenzo[1,4]dioxin-6-ol]	1.94	0.39	
O=C1CC2(CCCC2)CC(=O)N1CCCCN1CCN(c2ncccn2)CC1 [buspirone]			affinity for the 5-HT1A serotonin receptor subtype (in words) [3]: potent affinity

More lines, main results first:

IC50 [1] [nM]	IC50 (dopamine D2 receptor) [nM]	Structure (SMILES)	other results
0.81	4.75	COc1ccc2[nH]cc(CCCCNCC3COc4ccc(NS(C)(=O)=O)cc4O3)c2c1 (centres unmarked) [Example 14, N-(3-{[4-(5-Methoxy-1 H-indol-3-yl)-butylamino]-methyl}-2,3-dihydrobenzo[1,4]dioxin-6-yl)-methanesulfonamide]	
5.8	0.76	CS(=O)(=O)Nc1ccc2c(c1)O[C@@H](CNCCCc1c[nH]c3ccccc13)CO2 [Example 21, N-(3-{[3-(1H-Indol-3-yl)-propylamino]methyl}-2,3-dihydro-benzo[1,4]dioxin-6-yl)-methanesulfonamide]	
4.85	0.3	Oc1ccc2c(c1)OC(CNCCCc1c[nH]c3ccccc13)CO2 (centres unmarked) [Example 15, 3-{[4-(1H-Indol-3-yl)-propylamino]-methyl}-2,3-dihydro-benzo[1,4]dioxin-6-ol]	
5.5	72	COc1ccc2c(c1)OC(CNCCCCc1c[nH]c3ccc(F)cc13)CO2 (centres unmarked) [Example 19, [4-(5-Fluoro-1H-indole-3-yl)-butyl]-(7-methoxy-2,3-dihydro-benzo[1,4]dioxin-2-ylmethyl)-amine]	
3.95	18.4	Fc1ccc2[nH]cc(CCCCNCC3COc4ccccc4O3)c2c1 (centres unmarked) [Example 18, (2,3-Dihydro-benzo[1,4]dioxin-2-ylmethyl)-[4-(5-fluoro-1H-indol-3-yl)-butyl]-amine]	
4.86	13.6	c1ccc2c(c1)OCC(CNCCCCc1c[nH]c3ccccc13)O2 (centres unmarked) [Example 16, (2,3-Dihydro-benzo[1,4]dioxin-2-ylmethyl)-[4-(1H-indol-3-yl)-butyl]-amine]	
3.77	3.5	c1ccc2c(c1)OCC(CNCCCc1c[nH]c3ccccc13)O2 (centres unmarked) [Example 17, (2.3-Dihydro-benzo[1,4]dioxin-2-ylmethyl)-[3-(1H-indol-3-yl)-propyl]-amine]	
0.56	6.63	COc1ccc2[nH]cc(CCCCNCC3COc4ccccc4O3)c2c1 (centres unmarked) [Example 23, (2,3-Dihydro-benzo[1,4]dioxin-2-ylmethyl)-[4-(5-methoxy-1H-indol-3-yl)-butyl]-amine]	
5.9	0.13	Oc1ccc2c(c1)O[C@@H](CNCCCc1c[nH]c3ccccc13)CO2 [Example 20, 3-{[3-(1H-Indol-3-yl)-propylamino]methyl}-2,3-dihydro-benzo[1,4]dioxin-6-ol]	
16	49.8	Cn1cc(CCCCNCC2COc3ccccc3O2)c2cc(F)ccc21 (centres unmarked) [Example 22, (2,3-Dihydro-benzo[1,4]dioxin-2-ylmethyl)-{4-[5-fluoro-1-methyl-1H-(indole-3-yl)]-butyl}-amine]	
9.29	20.4	Cn1cc(CCCNCC2COc3ccc(NS(C)(=O)=O)cc3O2)c2ccccc21 (centres unmarked) [Example 24, N-(3-{[3-(1-Methyl-1H-indol-3-yl)-propylamino]-methyl}-2,3-dihydrobenzo[1,4]dioxin-6-yl)-methanesulfonamide]	
